Data from US9725448B2, “Neprilysin inhibitors” (THERAVANCE BIOPHARMA R&D IP, LLC, priority 2011, dated 2017).

target: T1, human NEP (Homo sapiens, UniProt P08473); assay: In vitro enzyme inhibition assay at human NEP (fluorogenic peptide substrate); format: biochemical; settings: pKi values at human NEP (recombinant), given as ranges
T1 construct: purchased R&D Systems, Minneapolis, Minn; 1182-ZN
Protocol: The inhibitory activities of compounds at human and rat neprilysin (EC 3.4.24.11; NEP) and human angiotensin converting enzyme (ACE) were determined using in vitro assays as described below.
Recombinant human NEP and recombinant human ACE were obtained commercially (R&D Systems, Minneapolis, Minn., catalog numbers 1182-ZN and 929-ZN, respectively). The fluorogenic peptide substrate Mca-D-Arg-Arg-Leu-Dap-(Dnp)-OH (Medeiros et al. (1997) Braz. J. Med. Biol. Res. 30:1157-62; Anaspec, San Jose, Calif.) and Abz-Phe-Arg-Lys(Dnp)-Pro-OH (Araujo et al. (2000) Biochemistry 39:8519-8525; Bachem, Torrance, Calif.) were used in the NEP and ACE assays respectively.
The assays were performed in 384-well white opaque plates at 37° C. using the fluorogenic peptide substrates at a concentration of 10 μM in Assay Buffer (NEP: 50 mM HEPES, pH 7.5, 100 mM NaCl, 0.01% polyethylene glycol sorbitan monolaurate (Tween-20), […]; ACE: 50 mM HEPES, pH 7.5, 100 mM NaCl, 0.01% Tween-20, 1 μM ZnSO4).
Test compounds were assayed over the range of concentrations from 10 μM to 20 pM. Test compounds were added to the enzymes and incubated for 30 minute at 37° C. prior to initiating the reaction by the addition of substrate. Reactions were terminated after 20 minutes of incubation at 37° C. by the addition of glacial acetic acid to a final concentration of 3.6% (v/v).
Plates were read on a fluorometer with excitation and emission wavelengths set to 320 nm and 405 nm, respectively. Inhibition constants were obtained by nonlinear regression of the data using the equation (GraphPad Software, Inc., San Diego, Calif.): ν=ν0/[1+(I/K′)] where ν is the reaction rate, ν0 is the uninhibited reaction rate, I is the inhibitor concentration and K′ is the apparent inhibition constant.
Compounds of the invention were tested in this assay and found to have pKi values at human NEP as follows.

T1 sequence (P08473 52-750 limits assumed): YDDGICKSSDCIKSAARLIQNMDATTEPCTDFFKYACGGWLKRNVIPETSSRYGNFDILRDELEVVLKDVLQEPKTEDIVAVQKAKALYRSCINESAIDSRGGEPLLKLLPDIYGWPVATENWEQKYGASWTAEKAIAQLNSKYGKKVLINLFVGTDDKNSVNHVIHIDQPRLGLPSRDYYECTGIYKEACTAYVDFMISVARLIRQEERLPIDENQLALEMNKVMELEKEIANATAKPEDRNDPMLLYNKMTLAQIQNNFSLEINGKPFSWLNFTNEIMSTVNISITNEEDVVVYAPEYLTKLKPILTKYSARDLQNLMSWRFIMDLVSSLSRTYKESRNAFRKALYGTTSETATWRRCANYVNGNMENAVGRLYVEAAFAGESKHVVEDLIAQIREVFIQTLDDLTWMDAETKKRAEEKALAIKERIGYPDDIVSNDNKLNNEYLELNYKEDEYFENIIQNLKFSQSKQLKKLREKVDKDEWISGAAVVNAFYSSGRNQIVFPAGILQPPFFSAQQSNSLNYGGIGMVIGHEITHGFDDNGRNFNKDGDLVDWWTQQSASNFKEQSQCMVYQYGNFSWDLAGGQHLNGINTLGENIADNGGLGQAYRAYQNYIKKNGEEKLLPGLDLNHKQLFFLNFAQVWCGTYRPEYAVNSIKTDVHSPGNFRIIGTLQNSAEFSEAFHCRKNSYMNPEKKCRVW

| Ki [nM] | SMILES |
| --- | --- |
| ≤ 1 | CC(C)(C[C@@H](Cc1ccc(-c2ccccc2)cc1)NC(=O)c1cc(C(=O)O)n[nH]1)C(=O)O [Example 9-6, 5-((R)-1-Biphenyl-4-ylmethyl-3-carboxy-3-methyl-butylcarbamoyl)-1H-pyrazole-3-carboxylic acid] |
| 12.6 to 100 | CC(C)(C[C@@H](Cc1ccc(-c2ccccc2)cc1)NC(=O)c1cc(C(=O)N2CCOCC2)n[nH]1)C(=O)O [Example 9-8, (R)-5-Biphenyl-4-yl-2,2-dimethyl-4-{[5-(morpholine-4-carbonyl)-2H-pyrazole-3-carbonyl]-amino}-pentanoic acid] |
| 12.6 to 100 | CC(C)(C[C@@H](Cc1ccc(-c2ccccc2)cc1)NC(=O)c1cc(C(=O)N2CCC(O)C2)n[nH]1)C(=O)O (stereo partly drawn) [Example 9-9, (R)-5-Biphenyl-4-yl-4-{[5-(3-hydroxy-pyrrolidine-1-carbonyl)-2H-pyrazole-3-carbonyl]-amino}-2,2-dimethyl-pentanoic acid] |
| 12.6 to 100 | CC(C)(C[C@@H](Cc1ccc(-c2ccccc2)cc1)NC(=O)c1cc(C(=O)N2CCC(O)CC2)n[nH]1)C(=O)O [Example 9-10, (R)-5-Biphenyl-4-yl-4-{[5-(4-hydroxy-piperidine-1-carbonyl)-2H-pyrazole-3-carbonyl]-amino}-2,2-dimethyl-pentanoic acid] |
| 1.26 to 10 | CC(C)(C[C@@H](Cc1ccc(-c2ccccc2)cc1)NC(=O)c1cc(C(=O)N2CCC[C@H]2C(=O)O)n[nH]1)C(=O)O [Example 9-11, (S)-1-[5-((R)-1-Biphenyl-4-ylmethyl-3-carboxy-3-methyl-butylcarbamoyl)-1H-pyrazole-3-carbonyl]-pyrrolidine-2-carboxylic acid] |
| 12.6 to 100 | CNC(=O)c1cc(C(=O)N[C@H](Cc2ccc(-c3ccccc3)cc2)CC(C)(C)C(=O)O)[nH]n1 [Example 9-12, (R)-5-Biphenyl-4-yl-2,2-dimethyl-4-[(5-methylcarbamoyl-2H-pyrazole-3-carbonyl)-amino]-pentanoic acid] |
| 12.6 to 100 | CN(C)C(=O)c1cc(C(=O)N[C@H](Cc2ccc(-c3ccccc3)cc2)CC(C)(C)C(=O)O)[nH]n1 [Example 9-13, (R)-5-Biphenyl-4-yl-4-[(5-dimethylcarbamoyl-2H-pyrazole-3-carbonyl)-amino]-2,2-dimethyl-pentanoic acid] |
| 12.6 to 100 | CC(C)CN(C)C(=O)c1cc(C(=O)N[C@H](Cc2ccc(-c3ccccc3)cc2)CC(C)(C)C(=O)O)[nH]n1 [Example 9-14, (R)-5-Biphenyl-4-yl-4-{[5-(isobutyl-methyl-carbamoyl)-2H-pyrazole-3-carbonyl]-amino}-2,2-dimethyl-pentanoic acid] |
| 1.26 to 10 | COCCN(C)C(=O)c1cc(C(=O)N[C@H](Cc2ccc(-c3ccccc3)cc2)CC(C)(C)C(=O)O)[nH]n1 [Example 9-15, (R)-5-Biphenyl-4-yl-4-({5-[(2-methoxy-ethyl)-methyl-carbamoyl]-2H-pyrazole-3-carbonyl}-amino)-2,2-dimethyl-pentanoic acid] |
| 12.6 to 100 | CC(C)(C[C@@H](Cc1ccc(-c2ccccc2)cc1)NC(=O)c1cc(C(=O)NCCc2c[nH]cn2)n[nH]1)C(=O)O [Example 9-17, (R)-5-Biphenyl-4-yl-4-({5-[2-(1H-imidazol-4-yl)-ethylcarbamoyl]-2H-pyrazole-3-carbonyl}-amino)-2,2-dimethyl-pentanoic acid] |
| 12.6 to 100 | CC(=O)c1cc(C(=O)N[C@H](Cc2ccc(-c3ccccc3)cc2)CC(C)(C)C(=O)O)[nH]n1 [Example 9-18, (R)-4-[(5-Acetyl-2H-pyrazole-3-carbonyl)-amino]-5-biphenyl-4-yl-2,2-dimethyl-pentanoic acid] |
| ≤ 1 | O=C(N[C@H](Cc1ccc(-c2ccccc2)cc1)CC1(C(=O)O)CC1)c1cc(C(=O)O)[nH]n1 [Example 10A, 5-[(R)-2-Biphenyl-4-yl-1-(1-carboxy-cyclopropylmethyl)-ethylcarbamoyl]-2H-pyrazole-3-carboxylic acid] |
